Test results published in patent US20260176300A1, “N-ARYLPYRAZOLE NOD2 AGONISTS AS PROMOTERS OF IMMUNE CHECKPOINT INHIBITOR THERAPY” (THE SCRIPPS RESEARCH INSTITUTE, priority 2022, published 2026).
Like-named read-outs stand apart in the source and are kept apart here.

What was measured:
HEK-Blue Null2 = assay: NULL HEK-Blue NF-κB reporter cell activation assay (control); type: cell-based; details: 10 μM, 16 h (FIG. 5)
Method: (§1) FIG. 5(A-B). Lead 3,5-dimethyl-N-arylpyrazole TT007 specifically activates NOD2. A-B, Activation of Null (control) and NOD1-expressing HEK-293T cells treated for 16 h with 10 μM of the indicated compound using a colorimetric assay. ****P<0.0001.
(§2) Cell culture. The following cell lines were used and sourced as follows: HEK-Blue NOD2 (InvivoGen, hkb-hnod2), HEK-Blue NOD1 (InvivoGen, hkb-nod1), HEK-Blue Null2 (hkb-null2), and B16-F10 (ATCC CRL-6475). All cell lines were cultured at 37° C. in 5% CO2 in DMEM (ThermoFisher, 11995065) supplemented with 10% fetal bovine serum (FBS), 100 U mL-1 penicillin, and 100 μg mL-1 streptomycin. Cells were maintained at no greater than 70% confluency and subcultured using TrypLE Express. Cell lines were routinely cultured without antibiotics to ensure no bacterial infection and tested for mycoplasma using a Universal Mycoplasma Detection Kit (ATCC 30-1012K). Primary human peripheral mononuclear blood cells (PBMCs) were cultured at 37° C. in 5% CO2 in RPMI 1640 (ThermoFisher, 61870143) supplemented with 10% FBS. […]
(§3) Reporter cell line activation assay. […] To measure activity, wells were then gently pipetted up and down to mix the conditioned medium, and absorbance from the colorimetric product of the secreted alkaline phosphatase was measured at 630 nm. […] Activity was then measured by absorbance as described above.

NOD1 [1] = molecular target: T1, NOD1 (Homo sapiens, UniProt Q9Y239); assay: NOD1 HEK-Blue NF-κB reporter cell activation assay (NOD1-expressing HEK-293T cells); type: cell-based; details: 10 μM, 16 h (FIG. 5)
T1 construct: host or cells: HEK-293T-derived HEK-Blue NF-kB/SEAP reporter cells
T1 sequence (Q9Y239 1-953): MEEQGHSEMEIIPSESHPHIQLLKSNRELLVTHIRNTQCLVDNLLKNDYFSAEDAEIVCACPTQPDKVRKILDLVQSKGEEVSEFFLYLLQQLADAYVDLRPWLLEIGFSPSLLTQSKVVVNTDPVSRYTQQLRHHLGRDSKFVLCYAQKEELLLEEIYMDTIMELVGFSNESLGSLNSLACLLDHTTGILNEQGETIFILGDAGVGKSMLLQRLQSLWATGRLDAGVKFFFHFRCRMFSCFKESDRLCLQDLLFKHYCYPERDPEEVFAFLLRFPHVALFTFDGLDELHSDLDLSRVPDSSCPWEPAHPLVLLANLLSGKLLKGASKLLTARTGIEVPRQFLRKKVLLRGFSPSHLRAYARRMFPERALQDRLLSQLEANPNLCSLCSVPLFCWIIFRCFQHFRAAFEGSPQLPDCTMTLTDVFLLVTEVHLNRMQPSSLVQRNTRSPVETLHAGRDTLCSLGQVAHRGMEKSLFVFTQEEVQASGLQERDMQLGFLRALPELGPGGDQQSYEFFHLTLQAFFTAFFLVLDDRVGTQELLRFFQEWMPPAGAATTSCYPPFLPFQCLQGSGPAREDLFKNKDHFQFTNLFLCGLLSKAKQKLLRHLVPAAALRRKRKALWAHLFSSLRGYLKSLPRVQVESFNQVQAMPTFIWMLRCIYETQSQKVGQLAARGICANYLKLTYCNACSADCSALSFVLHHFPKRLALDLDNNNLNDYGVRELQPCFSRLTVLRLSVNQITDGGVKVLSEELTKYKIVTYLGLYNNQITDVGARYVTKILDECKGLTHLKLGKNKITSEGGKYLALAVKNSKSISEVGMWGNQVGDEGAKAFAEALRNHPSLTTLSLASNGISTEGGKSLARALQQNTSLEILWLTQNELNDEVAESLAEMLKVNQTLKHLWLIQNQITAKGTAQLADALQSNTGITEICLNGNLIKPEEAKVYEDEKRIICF
Method: as §1, §2, §3

NOD2 = molecular target: T2, NOD2 (Homo sapiens, UniProt Q9HC29); assay: NOD2-HEK-Blue NF-κB reporter cell activation assay (NOD2-expressing HEK-293T cells); type: cell-based
T2 construct: host or cells: HEK-293T-derived HEK-Blue NF-kB/SEAP reporter cells
T2 sequence (Q9HC29 whole entry): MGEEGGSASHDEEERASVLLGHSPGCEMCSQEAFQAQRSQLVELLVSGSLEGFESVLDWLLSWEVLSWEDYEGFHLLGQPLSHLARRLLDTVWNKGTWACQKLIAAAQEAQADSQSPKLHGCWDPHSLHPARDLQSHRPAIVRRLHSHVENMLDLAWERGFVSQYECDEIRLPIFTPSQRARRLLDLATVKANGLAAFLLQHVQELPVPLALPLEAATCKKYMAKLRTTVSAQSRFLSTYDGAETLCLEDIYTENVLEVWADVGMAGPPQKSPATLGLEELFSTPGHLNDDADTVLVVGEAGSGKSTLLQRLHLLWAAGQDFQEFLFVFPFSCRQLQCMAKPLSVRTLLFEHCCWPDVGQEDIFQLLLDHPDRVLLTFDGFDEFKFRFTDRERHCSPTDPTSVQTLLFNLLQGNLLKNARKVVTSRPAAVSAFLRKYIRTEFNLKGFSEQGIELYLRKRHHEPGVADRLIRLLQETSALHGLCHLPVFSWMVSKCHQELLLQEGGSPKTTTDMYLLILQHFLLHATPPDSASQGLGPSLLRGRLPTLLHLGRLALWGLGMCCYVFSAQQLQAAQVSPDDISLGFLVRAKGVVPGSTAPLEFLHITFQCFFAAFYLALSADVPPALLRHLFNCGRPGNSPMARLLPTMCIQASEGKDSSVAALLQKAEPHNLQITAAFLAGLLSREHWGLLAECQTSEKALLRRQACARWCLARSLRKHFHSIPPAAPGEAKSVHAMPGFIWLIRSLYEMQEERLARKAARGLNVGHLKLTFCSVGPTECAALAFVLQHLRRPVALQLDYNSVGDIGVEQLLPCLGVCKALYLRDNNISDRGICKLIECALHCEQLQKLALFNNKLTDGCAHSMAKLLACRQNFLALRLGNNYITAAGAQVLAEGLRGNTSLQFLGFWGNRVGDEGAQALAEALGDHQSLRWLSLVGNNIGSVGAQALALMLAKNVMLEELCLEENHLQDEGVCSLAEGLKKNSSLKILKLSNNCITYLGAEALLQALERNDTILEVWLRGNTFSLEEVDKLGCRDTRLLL
Description: FIG. 1(A-F). Virtual screening for small molecule NOD2 agonists. A, Docked structure of muramyl dipeptide (MDP) in the leucine-rich repeat (LRR) domain of rabbit NOD2 (pdb 5IRM). […] B, Results of virtual docking approach with reported chemical structures related to MDP. C, Workflow of virtual screening in which a library was generated using carboxylic acids appended to the L-Val-D-Glu dipeptide and then docked to the NOD2 LRR domain. D, Desmuramyl MDP (dMDP) structures resulting from the virtual screen that were synthesized for further screening. Chemicals shown as a pure enantiomer were synthesized as a racemic mixture. E, Activation of NOD2-expressing HEK-293T cells treated for 16 h with 10 µM of the indicated compound using a colorimetric assay. F, Dose-dependent activation of NOD2-expressing HEK-293T cells using the indicated compounds. Numbers in parentheses represent calculated negative log of the half maximal effective concentration (pEC50) values. NOD activation assays were analyzed using a one-way ANOVA with Dunnett's multiple comparisons test compared to the DMSO control. pEC50 values were derived by a three-parameter dose-response nonlinear regression. ****P<0.0001.
FIG. 2(A-G). Structure-activity relationship studies of 3,5-dimethyl-N-arylpyrazole NOD2 agonists. A, Structures of 3,5-dimethyl-N-arylpyrazole structures synthesized for SAR studies. B-F, Dose-dependent activation of NOD2-expressing HEK-293T cells using the indicated compounds grouped by similar structural perturbations. Numbers in parentheses represent calculated pEC50 values. G, Graph of calculated pEC50 values vs. calculated partition coefficient (clogP). Dotted lines show equivalent lipophilic ligand efficiency (LLE) values. Red arrow indicates optimization of the TT007 scaffold to TT030. pEC50 values were derived by a three-parameter dose-response nonlinear regression.
Cell culture. The following cell lines were used and sourced as follows: HEK-Blue NOD2 (InvivoGen, hkb-hnod2), HEK-Blue NOD1 (InvivoGen, hkb-nod1), HEK-Blue Null2 (hkb-null2), and B16-F10 (ATCC CRL-6475). All cell lines were cultured at 37° C. in 5% CO2 in DMEM (ThermoFisher, 11995065) supplemented with 10% fetal bovine serum (FBS), 100 U mL-1 penicillin, and 100 μg mL-1 streptomycin. Cells were maintained at no greater than 70% confluency and subcultured using TrypLE Express. Cell lines were routinely cultured without antibiotics to ensure no bacterial infection and tested for mycoplasma using a Universal Mycoplasma Detection Kit (ATCC 30-1012K). Primary human peripheral mononuclear blood cells (PBMCs) were cultured at 37° C. in 5% CO2 in RPMI 1640 (ThermoFisher, 61870143) supplemented with 10% FBS. All experimental work using human samples was reviewed and approved by the Scripps Research Institutional Review Board (Protocol IRB-21-7816NOD2).
Reporter cell line activation assay. Approximately 24 h before the assay, culture medium for each of the HEK-Blue reporter cell lines was replaced with a 1:1 mixture of DMEM supplemented with 10% FBS and OptiMEM. On the day of the assay, single cell suspensions (150,000 cells/mL) were produced in HEK-Blue detection medium (InvivoGen, hb-det2). Cells were aliquoted at 200 μL per well of a 96-well plate containing 0.2 μL of a 1000× stock of each test compound in DMSO. Cells were then incubated at 37° C. in 5% CO2 for 8-10 h. To measure activity, wells were then gently pipetted up and down to mix the conditioned medium, and absorbance from the colorimetric product of the secreted alkaline phosphatase was measured at 630 nm. In some assays, cells were stimulated for 16 h with compounds as described above in complete DMEM. Then, 20 μL of the conditioned medium was mixed with 180 μL QUANTI-Blue solution (InvivoGen, rep-qbs) and incubated for 2-4 h at 37° C. Activity was then measured by absorbance as described above.

NOD1 [2] = molecular target: T1, NOD1; details: relative to iE-DAP; cited from earlier work

| Activation of NOD1 HEK-Blue NF-κB reporter cells (NOD1 [1]) | Activation of NOD2-expressing HEK-293T cells, colorimetric assay (NOD2; 10 µM, 16 h (FIG. 1E)) | EC50 (NOD2; FIG. 1F, read-out: pEC50, dose-dependent NOD2 activation (converted)) [µM] | EC50 (NOD2; calculated, three-parameter dose-response nonlinear regression, read-out: pEC50 (μM), dose-dependent activation of NOD2-expressing HEK-293T cells (converted)) [µM] | SMILES | Activation of NULL HEK-Blue NF-κB reporter cells (HEK-Blue Null2) | Greater activation of NOD1-dependent NF-κB reporter (NOD1 [2]) [fold] |
| --- | --- | --- | --- | --- | --- | --- |
| inactive | active | ~1 | 1 | CCOC(=O)CC[C@@H](NC(=O)[C@@H](NC(=O)c1c(C)nn(-c2ccc(F)cc2)c1C)C(C)C)C(=O)OCC [TT007, Diethyl (1-(4-fluorophenyl)-3,5-dimethyl-1H-pyrazole-4-carbonyl)-L-valyl-D-glutamate] | inactive |  |
|  |  |  |  | CCCCCCCCCCCC(=O)N[C@H](CCC(=O)NC(CCCC(N)C(=O)O)C(=O)O)C(=O)O (stereo partly drawn) [C12-iE-DAP] |  | ~100 |
